Experimental data published in patent US10413505B1, “Pharmaceutical compositions and methods of using the same” (priority 2017, dated 2019).

What was measured:
[1] = Example 2 urinary pharmacokinetics, normal renal function vs severe renal impairment; settings: single intranasal 160 mg cocaine HCl; for 0 to 32 hour urinary recovery (geometric mean) / 0 to 32 hour urinary recovery (mean) / 0 to 32 hour urinary recovery (median): metabolites as cocaine equivalents
Experimental: For the urine analysis of cocaine, BE, and EME, individual urinary recoveries for each analyte were determined over each collection interval as the product of the urine concentration times the urine volume. The total recoveries were determined as the sum of the recoveries over all the intervals. Total urinary recoveries were also expressed as the percentage of the administered dose, after correction for the molecular weight of each analyte. The renal clearances of cocaine, BE, and EME were determined as the urinary recovery (in μg) divided by the plasma AUC over the same time interval (the longest period for which both plasma and urine measurements were available).
Urine was collected prior to dosing and from 0-2, 2-4, 4-8, 8-12, 12-24, and 24-32 hours after the beginning of dose application. […] Testing methods used were consistent with those used by inVentiv Health Clinical Lab, Inc., Miami, Fla., U.S.A. Urinary pharmacokinetic parameters included total urinary recovery (μg), urinary recovery as a percentage of dose, and CLr.

[2] = Example 1 urinary pharmacokinetics after intranasal administration; assay type: in vivo, human; settings: healthy subjects; single intranasal 160 mg cocaine HCl; urine 0-12 h; metabolites as cocaine equivalents
Experimental: A single dose of a pharmaceutical composition was administered to both nostrils using cottonoid pledgets. […] Each pledget absorbed approximately 1 mL of pharmaceutical composition (i.e., 40 mg cocaine hydrochloride). Two soaked pledgets were placed into each nasal cavity of the subject and against the anterior septum for 20 minutes; thus, a total dose of 160 mg of cocaine hydrochloride was administered.
Urine samples were collected pre-dose and at the following intervals from the start of intranasal application of the pharmaceutical composition: 0-2 hours, 2-4 hours, 4-8 hours, and 8-12 hours. […] A 25-μL aliquot of each urine sample was processed by liquid-liquid extraction.
Urinary pharmacokinetic parameters were analyzed using noncompartmental methods.

[3] = Example 3 plasma pharmacokinetics, normal hepatic function vs hepatic impairment; settings: for AUC0→t (Geometric mean) / AUC0→t (Max) / AUC0→t (Mean) / AUC0→t (Median) / AUC0→t (Min) / AUC0→∞ (Geometric mean) / AUC0→∞ (Max) / AUC0→∞ (Mean) / AUC0→∞ (Median) / AUC0→∞ (Min) / Clast (Geometric mean) / Clast (Max) / Clast (Mean) / Clast (Median) / Clast (Min) / Cmax (Geometric mean) / Cmax (Max) / Cmax (Mean) / Cmax (Median) / Cmax (Min) / Tlast (Geometric mean) / Tlast (Max) / Tlast (Mean) / Tlast (Median) / Tlast (Min) / Tmax (Geometric mean) / Tmax (Max) / Tmax (Mean) / Tmax (Median) / Tmax (Min) / t1/2 (Geometric mean) / t1/2 (Max) / t1/2 (Mean) / t1/2 (Median) / t1/2 (Min): single intranasal 160 mg cocaine HCl, plasma
[4] = normal renal function, listed as Benzoylecgonine
[5] = severe renal impairment, listed as Benzoylecgonine

CN1[C@H]2CC[C@@H]1[C@@H](C(=O)O)[C@@H](OC(=O)c1ccccc1)C2 [BE, benzoylecgonine]
0-32 h Urinary Recovery (geometric mean) ([1]; normal renal function): 2106 µg | 0-32 h Urinary Recovery (mean) ([1]; normal renal function): 2764 µg | 0-32 h Urinary Recovery (median) ([1]; normal renal function): 1483 µg | Renal Clearance, CLr (geometric mean) ([1]; normal renal function): 3.61 L/h | Renal Clearance, CLr (mean) ([1]; normal renal function): 3.77 L/h | Renal Clearance, CLr (median) ([1]; normal renal function): 4.01 L/h | Renal Clearance, geometric mean ([1]; normal renal function): 60.14 mL/min | Renal Clearance, mean ([1]; normal renal function): 62.78 mL/min | Renal Clearance, median ([1]; normal renal function): 66.86 mL/min | 0 to 32 hour urinary recovery (geometric mean) ([1]; normal renal function): 1.55 % of administered dose | 0 to 32 hour urinary recovery (mean) ([1]; normal renal function): 2.03 % of administered dose | 0 to 32 hour urinary recovery (median) ([1]; normal renal function): 1.089 % of administered dose | 0 to 32 hour urinary recovery (geometric mean) [1, 4]: 1.546 % of administered dose | 0 to 32 hour urinary recovery (mean) [1, 4]: 2.029 % of administered dose | 0-32 h Urinary Recovery (geometric mean) ([1]; severe renal impairment): 3126 µg | 0-32 h Urinary Recovery (mean) ([1]; severe renal impairment): 3738 µg | 0-32 h Urinary Recovery (median) ([1]; severe renal impairment): 2709 µg | Renal Clearance, CLr (geometric mean) ([1]; severe renal impairment): 0.854 L/h | Renal Clearance, CLr (mean) ([1]; severe renal impairment): 0.919 L/h | Renal Clearance, CLr (median) ([1]; severe renal impairment): 0.824 L/h | Renal Clearance, geometric mean ([1]; severe renal impairment): 14.2 mL/min | Renal Clearance, mean ([1]; severe renal impairment): 15.3 mL/min | Renal Clearance, median ([1]; severe renal impairment): 13.7 mL/min | 0 to 32 hour urinary recovery (geometric mean) ([1]; severe renal impairment): 2.29 % of administered dose | 0 to 32 hour urinary recovery (mean) ([1]; severe renal impairment): 2.74 % of administered dose | 0 to 32 hour urinary recovery (median) ([1]; severe renal impairment): 1.988 % of administered dose | 0 to 32 hour urinary recovery (geometric mean) [1, 5]: 2.294 % of administered dose | 0 to 32 hour urinary recovery (mean) [1, 5]: 2.744 % of administered dose | Total Urinary Recovery (Geometric mean) [2]: 713 µg | Total Urinary Recovery (Mean) [2]: 816 µg | Total Urinary Recovery (Median) [2]: 769 µg | Urinary Recovery (Geometric mean) [2]: 0.467 % dose | Urinary Recovery (Mean) [2]: 0.534 % dose | Urinary Recovery (Median) [2]: 0.504 % dose | AUClast, times higher than normal subjects ([3]; Grade B hepatic impairment): approximately 2.4 times | AUClast, percent increased vs normal ([3]; Grade C hepatic impairment): 12% | AUC0→t (Geometric mean) ([3]; hepatic impairment): 1235 ng·h/mL | AUC0→t (Max) ([3]; hepatic impairment): 3356 ng·h/mL | AUC0→t (Mean) ([3]; hepatic impairment): 1402 ng·h/mL | AUC0→t (Median) ([3]; hepatic impairment): 1190 ng·h/mL | AUC0→t (Min) ([3]; hepatic impairment): 606 ng·h/mL | AUC0→∞ (Geometric mean) ([3]; hepatic impairment): 1513 ng·h/mL | AUC0→∞ (Max) ([3]; hepatic impairment): 3532 ng·h/mL | AUC0→∞ (Mean) ([3]; hepatic impairment): 1724 ng·h/mL | AUC0→∞ (Median) ([3]; hepatic impairment): 1448 ng·h/mL | AUC0→∞ (Min) ([3]; hepatic impairment): 647 ng·h/mL | Clast (Geometric mean) ([3]; hepatic impairment): 14.3 ng/mL | Clast (Max) ([3]; hepatic impairment): 42.6 ng/mL | Clast (Mean) ([3]; hepatic impairment): 17.6 ng/mL | Clast (Median) ([3]; hepatic impairment): 16.6 ng/mL | Clast (Min) ([3]; hepatic impairment): 3.33 ng/mL | Cmax (Geometric mean) ([3]; hepatic impairment): 67.1 ng/mL | Cmax (Max) ([3]; hepatic impairment): 248 ng/mL | Cmax (Mean) ([3]; hepatic impairment): 81.2 ng/mL | Cmax (Median) ([3]; hepatic impairment): 67.8 ng/mL | Cmax (Min) ([3]; hepatic impairment): 27.4 ng/mL | Tlast (Geometric mean) ([3]; hepatic impairment): 32.0 h | Tlast (Max) ([3]; hepatic impairment): 32.0 h | Tlast (Mean) ([3]; hepatic impairment): 32.0 h | Tlast (Median) ([3]; hepatic impairment): 32.0 h | Tlast (Min) ([3]; hepatic impairment): 1920 min | Tmax (Geometric mean) ([3]; hepatic impairment): 6.95 h | Tmax (Max) ([3]; hepatic impairment): 12.0 h | Tmax (Mean) ([3]; hepatic impairment): 7.50 h | Tmax (Median) ([3]; hepatic impairment): 7.00 h | Tmax (Min) ([3]; hepatic impairment): 240 min | t1/2 (Geometric mean) ([3]; hepatic impairment): 12.3 h | t1/2 (Max) ([3]; hepatic impairment): 31.0 h | t1/2 (Mean) ([3]; hepatic impairment): 14.0 h | t1/2 (Median) ([3]; hepatic impairment): 12.1 h | t1/2 (Min) ([3]; hepatic impairment): 399 min | AUC0→t (Geometric mean) ([3]; normal hepatic function): 603 ng·h/mL | AUC0→t (Max) ([3]; normal hepatic function): 2969 ng·h/mL | AUC0→t (Mean) ([3]; normal hepatic function): 784 ng·h/mL | AUC0→t (Median) ([3]; normal hepatic function): 523 ng·h/mL | AUC0→t (Min) ([3]; normal hepatic function): 144 ng·h/mL | AUC0→∞ (Geometric mean) ([3]; normal hepatic function): 667 ng·h/mL | AUC0→∞ (Max) ([3]; normal hepatic function): 3446 ng·h/mL | AUC0→∞ (Mean) ([3]; normal hepatic function): 869 ng·h/mL | AUC0→∞ (Median) ([3]; normal hepatic function): 568 ng·h/mL | AUC0→∞ (Min) ([3]; normal hepatic function): 182 ng·h/mL | Clast (Geometric mean) ([3]; normal hepatic function): 4.33 ng/mL | Clast (Max) ([3]; normal hepatic function): 31.6 ng/mL | Clast (Mean) ([3]; normal hepatic function): 6.17 ng/mL | Clast (Median) ([3]; normal hepatic function): 3.71 ng/mL | Clast (Min) ([3]; normal hepatic function): 2.02 ng/mL | Cmax (Geometric mean) ([3]; normal hepatic function): 43.7 ng/mL | Cmax (Max) ([3]; normal hepatic function): 171 ng/mL | Cmax (Mean) ([3]; normal hepatic function): 57.5 ng/mL | Cmax (Median) ([3]; normal hepatic function): 35.5 ng/mL | Cmax (Min) ([3]; normal hepatic function): 7.03 ng/mL | Tlast (Geometric mean) ([3]; normal hepatic function): 32.0 h | Tlast (Max) ([3]; normal hepatic function): 32.0 h | Tlast (Mean) ([3]; normal hepatic function): 32.0 h | Tlast (Median) ([3]; normal hepatic function): 32.0 h | Tlast (Min) ([3]; normal hepatic function): 1920 min | Tmax (Geometric mean) ([3]; normal hepatic function): 1.96 h | Tmax (Max) ([3]; normal hepatic function): 8.00 h | Tmax (Mean) ([3]; normal hepatic function): 2.38 h | Tmax (Median) ([3]; normal hepatic function): 1.63 h | Tmax (Min) ([3]; normal hepatic function): 60 min | t1/2 (Geometric mean) ([3]; normal hepatic function): 9.00 h | t1/2 (Max) ([3]; normal hepatic function): 13.1 h | t1/2 (Mean) ([3]; normal hepatic function): 9.16 h | t1/2 (Median) ([3]; normal hepatic function): 8.91 h | t1/2 (Min) ([3]; normal hepatic function): 398 min
